Assays:
[1] = LNP size and size distribution by Dynamic Light Scattering (Method B); type: physicochemical; conditions: DLS; for Size (nm): Z-average
Experimental: • 0.33 ug/uL mRNA solution in DEPC-treated water (RiboPro, Off-The-Shelf mRNA; eGFP with Cap 1) • 0.04 ug/uL mRNA solution in DEPC-treated water (RiboPro, Off-The-Shelf mRNA; eGFP with Cap 1)
In 1.5 mL eppendorf: • a) Place 2.9 uL of 0.33 ug/uL mRNA solution into Eppendorf tube • b) Add 1.94 μL of supplied ethanolic solution of tested lipid and immediately mix by working pipette up-and-down several times (work the solution up and down several times before transferring to saturate pipette tip with ethanol vapors) • c) Incubate for 15 minutes. • d) Add 536 μL of MEM. Mix the solution by vortexing. • e) Incubate for 30 minutes.
• a) Place 45 μL Lipofectamine-50 solution into 1.5 mL sterile Eppendorf tube. • b) Add 315 μL of MEM. Vortex. • c) Incubate 15 min. Size and Size Distribution Measurements with Dynamic Light Scattering • 1. Transfer 100 μL of freshly prepared LNP formulation in DLS micro cuvette. • 2. Place the formulation into Zetasizer pre-heated to 37 C. • 3. Equilibrate the sample for 5 minutes. • 4. Perform the size measurement in triplicate (settings: position and gain auto). • 5. For QC examine correlation curve to have no disturbances. Report Z-average and PDI based on cumulants fit. Transfection Efficiency with GFP mRNA (Method B)

[2] = Apparent pKa in LNPs by TNS titration; type: physicochemical; conditions: lipid nanoparticles (LNPs)
Experimental: In the case of some lipids, the apparent pKa in LNPs was determined by using TNS titration based on the method described: Angew Chem Int Ed Engl. 2012, 51 (34), 8529-8533, doi: 10.1002/anie.201203263).

Compound	PDI [1]	Size (nm) [1]	pKa [2]
CCCCC/C=C\C/C=C\CCCCCCCCOC(CCCCCCC/C=C\C/C=C\CCCCC)O[Si](C)(C)OCCCCCCN(C)CCO (stereo not drawn) [Example 56, (23Z,26Z)-13-((8Z,11Z)-heptadeca-8,11-dien-1-yl)-3,11,11-trimethyl-10,12,14-trioxa-3-aza-11-siladotriaconta-23,26-dien-1-ol]	0.092	185 nm	7.21
CCCCC/C=C\C/C=C\CCCCCCCCOC(CCCCCCC/C=C\C/C=C\CCCCC)O[Si](C)(C)OCCCCCCN(CCO)CCO (stereo not drawn) [Example 48, (23Z,26Z)-13-((8Z,11Z)-heptadeca-8,11-dien-1-yl)-3-(2-hydroxyethyl)-11,11-dimethyl-10,12,14-trioxa-3-aza-11-siladotriaconta-23,26-dien-1-ol]	0.128	180 nm	7.73
